Laboratory results published in PubChem BioAssay AID624344 (Sanford-Burnham Center for Chemical Genomics, 2012).
The source made the active and inactive calls. How the calls were made is not given here. Peptide text beside a SMILES is read from it. * marks the point of attachment. CH2Cl = ClC*

Key:
[1] = NFkB reporter suppression in cystic fibrosis bronchial cells – cell-based, uHTS hits, panel, cytotoxicity readout, dose response (AID 624344); conditions: CF bronchial epithelial cells, PAF-induced NFkB reporter inhibition; with PAF, mean of runs
Cytotoxicity = test: as above; conditions: CF bronchial epithelial cells, mean of runs

Row | Structure (SMILES) | IC50 [1] | IC50 (Cytotoxicity)
1 | O=C(c1cncc(Br)c1)N1CCc2ccccc2C1 | 8.73 µM | > 79 µM (inactive)
2 | CN(CCC#N)C(=O)COC(=O)c1ccccc1C(=O)c1ccc(Cl)c([N+](=O)[O-])c1 | 5.31 µM | 16.5 µM
3 | C[C@@H]1C[C@@H]([C@H](O)CC2CC(=O)NC(=O)C2)C(=O)[C@@H](C)C1 | 0.46 µM | 11.6 µM
4 | COc1ccc(-c2cn[nH]c2-c2ccc(OCc3ccc([N+](=O)[O-])cc3)cc2O)cc1 | 4.72 µM | 31.8 µM
5 | CCOC(=O)c1c(-c2ccccc2)oc2cc(Br)c(O)c(C=O)c12 | 3.05 µM | 13.3 µM
6 | CCC(C)Oc1cc(-c2ccnc(Nc3cccc(Cl)c3)n2)ccn1 (centres undefined) | 3.28 µM | 5.62 µM
7 | CCOC(=O)c1c(C)[nH]c(C(=O)N/N=C/c2ccc(Br)cc2)c1C | 14.6 µM | 45.9 µM
8 | CC(=O)c1ccc(-c2cnc3c(NC=O)cc(-c4ccc(C(=O)NC5CC5)cc4)cn23)cc1 | 4.25 µM | 27.4 µM
9 | CCN1CCN(Cc2ccc(NC(=O)c3ccc(C)c(NC(=O)c4ccc5n[nH]nc5c4)c3)cc2C(F)(F)F)CC1 | 2.58 µM | 33.3 µM
10 | CN(C)CCCN(C(=O)CCOc1ccccc1)c1nc2c(F)cccc2s1 | 5.63 µM | 24.6 µM
11 | Brc1ccc2ncnc(NCc3ccccc3)c2c1 | 0.506 µM | 6.15 µM
12 | COc1cc(C(=O)Nc2nnc(-c3sccc3C)s2)cc(OC)c1OC | inactive | 4.33 µM
13 | Fc1cccc(Cl)c1/C=N/Nc1c(Cl)cncc1Cl | 5.83 µM | 26.2 µM
14 | NS(=O)(=O)c1ccc(CCNC(=O)c2ccc(C#CC3(O)CCCCC3)cc2)cc1 | 3.47 µM | 5.01 µM
15 | CC(=O)Oc1c(Cl)cc(N(C(C)=O)S(=O)(=O)c2ccccc2)c2ccccc12 | 7.68 µM | 8.93 µM
16 | COc1ccc2cc3c(N)nn(C(=O)Cc4ccccc4OC)c3nc2c1 | 2.67 µM | 47.4 µM

Row | Structure (SMILES) | IC50 [1] | IC50 (Cytotoxicity)
17 | CC(C)CNC(=O)c1coc(=O)c(Br)c1 | 4.35 µM | 8.73 µM
18 | CC(C)C[C@H](CO)Nc1nc(Nc2cccc(Cl)c2)c2ncn(C(C)C)c2n1 | 5.12 µM | 36.2 µM
19 | CCCCNc1c(-c2cccc(-c3ccc(OC)cc3)c2)nc2ccc(C)cn12 | 4.98 µM | 1.72 µM
20 | Cn1nnnc1Sc1ncnc2scc(-c3ccc[nH]3)c12 | 14.7 µM | 6.95 µM
21 | CC(C)C[C@@H](CN1CCCC1CN1C(=S)NC[C@@H]1Cc1ccc(O)cc1)N1C[C@H](Cc2ccc(O)cc2)N(CCc2ccccc2)C1=S (some centres undefined) | 10.9 µM | 18.2 µM
22 | Cc1ccc(CNc2ncnc(N)c2[N+](=O)[O-])cc1 | 6.41 µM | 73.3 µM (inactive)
23 | O=[N+]([O-])c1cccc(NC(=S)Nc2nc(-c3ccccc3Cl)cs2)c1 | 6.59 µM | 10.1 µM
24 | Cc1nn(-c2ccccc2)c(Cl)c1C(=O)N1CCN(c2ncnc3c2cnn3-c2ccccc2)CC1 | 3.18 µM | 1.42 µM
25 | COc1cc(OC)cc(C(=O)N[C@H](C(=O)Nc2nc3ccccc3[nH]2)C(C)C)c1 | inactive | 41.1 µM
26 | COc1ccc(S(=O)(=O)N2c3cc(C)ccc3OCC2C(C)(C)C)cc1 (centres undefined) | 6.36 µM | > 79 µM (inactive)
27 | CC1CCN(Cc2c(C(=O)N/N=C/c3ccc(C(C)(C)C)cc3)nnn2-c2nonc2N)CC1 | 14.6 µM | 29.8 µM
28 | Cc1ccc(S(=O)(=O)Nc2ccc3cc([N+](=O)[O-])ccc3c2[N+](=O)[O-])cc1 | 3.17 µM | 4.15 µM
29 | c1cncc(-c2ccc3ncnc(NCc4ccc5c(c4)OCO5)c3c2)c1 | 6.5 µM | 6.65 µM
30 | COc1ccc2c(c1OC)C(=O)OC2Nc1nc(-c2ccccc2)cs1 (centres undefined) | 0.66 µM | 32.7 µM
31 | CC(=O)NC(CC(C)C)C(=O)NC(Cc1ccccc1)C(=O)CCl (stereo not drawn) (Ac-Leu-Phe-CH2Cl; configuration not given here) | 2.83 µM | 17.6 µM
32 | COc1cccc2sc(N(CCCN(C)C)C(=O)CCS(=O)(=O)c3ccccc3)nc12 | 2.34 µM | 4.84 µM
